Measurements published in US20040005294A1, “IGFBP-3 in the diagnosis and treatment of cancer” (priority 2002, published 2004).

Experiments:
[1] = test system: PI3K/Akt pathway in 1799 cells; experiment: Immunoblot of pAkt and pGSK-3β, 1799 cells; type: cell-based, human; conditions: 2-4 μM
Protocol: Whole cell lysates from 1×10^6 cells were prepared in lysis buffer as described (Lonardo et al., 2002). Equivalent amounts of protein were resolved by sodium dodecyl sulfate (SDS)-polyacrylamide gels (7.5%-12%) and transferred to a nitrocellulose membrane. After the membrane was blocked in Tris-buffered saline (TBS) containing 0.05% Tween 20 (TBST) and 5% (w/v) nonfat powdered milk, the membrane was incubated with primary antibody at the appropriate dilution in TBS-5% nonfat milk at 4° C. for 16 h. The membrane was then washed multiple times with TBST and incubated with the appropriate horseradish peroxidaseconjugated secondary antibody for 1 h at room temperature. The protein-antibody complexes were detected by enhanced chemilurminescence (ECL kit; Amersham, Arlington Heights, Ill.), according to the manufacturer's recommended protocol. […]

[2] = test system: 1799 cells; experiment: MTT proliferation assay, 1799 cells; type: cell-based, human; conditions: 2×10^−6 M or 4×10^−6 M, 2 days
Protocol: To measure the effects of deguelin on cell proliferation, NHBE, 1799, 1198, 1170-1, and HB56B cells were plated at concentrations of 2×10^3 to 4×10^3 cells/well in 96-well plates. The next day, cells were treated with either 0.1% DMSO as a diluent control or various concentrations of deguelin (final DMSO concentration=0.1%). At the end of the assay time period, cell proliferation was measured by the 3-(4,5-dimethylthiazol-2-yl)-2,5-diphenyltetrazolium bromide (MTT) assay as described (Lee et al., 2002). Six replicate wells were used for each analysis, and data from replicate wells are presented as means with 95% confidence intervals (CIs). For some experiments, the drug concentration required to inhibit cell growth by 50% (IC50) was determined by interpolation from dose-response curves. At least three independent experiments were performed.
To determine whether deguelin-induced antiproliferative effects on premalignant HBE cells were mediated through the inhibition of the PI3K/Akt pathway, 2×10^5 1799 cells/well or 1×10 ^6 squamous HBE cells/well in six-well plates were infected with 5×10 ^3 particles/cell of a control virus (Ad5CMV) or with 1×10^3 or 5×10^3 particles/cell of Ad5CMV-MyrAkt-HA, an adenoviral vector that expresses a constitutively active Akt. (MyrAkt) in KSFM. After 1 day of infection, cells were treated with 10^−7M or 10^−6M deguelin, 2×10^−6 M or 4×10^−6M N-(4-hydroxyphenyl)retinamide (4-HPR), or 0.1% DMSO as a control and then incubated for 1 or 2 days. Apoptosis was analyzed using the APO-BrdU staining kit for TUNEL, Western blot analyses for caspase-3, and the cleavage of PARP.

[3] = test system: IGFBP-3 mRNA in H1299 cells; experiment: Northern blot of IGFBP-3 expression after demethylating agent; type: cell-based, human; conditions: 5 days, RPMI 1640 with 2% FCS
Protocol: NSCLC cell lines and H1299 cells treated with 0.1, 1, or 5 μM of 5-aza-dC (Sigma, St. Luois, Mo.) for 5 days in RPMI 1640 medium containing 2% FCS were lysed in 4.0 M guanidinium isothiocyanate, and total cellular RNA was extracted as described previously (Kim et al., 1995). 20 μg of RNA was subjected to electrophoresis on a 1% agarose gel containing 2% formaldehyde. After gels were soaked in 50 mM NaOH/1×standard saline citrate (SSC) for 20 min followed by 10×SSC for 20 min, RNA was transferred onto a Zeta-Probe membrane (Bio-Rad Laboratories, Hercules, Calif.) overnight by the capillary transfer method. Membranes were cross-linked and then incubated in the hybridization solution containing […] IGFBP-3 or glyceraldehyde-3-phosphate dehydrogenase (GAPDH) cDNA as a control. The probe was labeled using a Prime-It® II Random Primer Kit (Stratagene, La Jolla, Calif.) and harvested with MicroSpin™ S-300 HR Columns (Amersham Phamacia Biotech Inc., Piscataway, N.J.). After overnight incubation, membranes were washed in high stringency condition and exposed to enhanced chemiluminescence (ECL) films for autoradiography.

[4] = test system: H1299 cells; experiment: Apoptosis by APO-BRDU staining and flow cytometry; type: cell-based, human; conditions: serum-free medium, 100 ng/ml IGF-I, 3 days
Protocol: Apoptosis was measured using the APO-BRDU staining kit (Phoenix Flow Systems, San Diego, Calif.) as previously described (Sueoka et al., 2000). Briefly, H1299 cells were untreated or infected with Ad5CMV or Ad5CMV-BP3, and then allowed to grow in serum-free medium or medium containing 10% serum or 100 ng/ml IGF-I for 3 days. Floating and adherent cells were analyzed using a FACScan flow cytometer (Becton Dickinson, San Jose, Calif.) to determine the percentage of apoptotic cells. The percentage of dead cells was determined by FACS analysis of propidium iodide-stained nuclei. Apoptosis was also determined by detecting of nucleosomal DNA fragmentation, which was measured using the TACS apoptotic DNA laddering kit (Trevigen, Inc., Gaithersburg, Md.) according to the manufacturer's protocol. Briefly, DNA was isolated from untreated or virus-infected H1299 cells by incubating the cells in lysis buffer. DNA samples were then subjected to electrophoresis on a 1.5% agarose gel and visualized by ethidium bromide staining. […] Apoptosis was measured using the APO-BRDU staining kit as described above.

[5] = test system: NSCLC cell lines; experiment: MTT cell growth assay, NSCLC cell lines; type: cell-based, human; conditions: serum-free medium, 3 days
Protocol: To measure the effects of IGF-I and IGF-II on proliferation of NSCLC cells, 2×10^3 NSCLC cell lines were incubated in serum-free medium containing 0.01-500 ng/ml IGF-I or IGF-II for 3 days. To measure the effects of Ad5CMV-BP-3 on proliferation of NHBE and NSCLC cell lines, these cells were seeded at 1×10^−2×10^3 cells/well in 96-well plates. After 1 day, cells were untreated or infected with 1×10^3, 5×10^3, or 1×10^4 particles/cell of Ad5CMV-BP3 or Ad5CMV (parental virus) as a viral control. Infection was allowed to occur for 2 h in the absence of serum, and infected cells were grown in medium containing 100 ng/ml or 250 ng/ml IGF-I. After 3 days of incubation, the growth of infected cells was measured by the 3-(4,5-dimethylthiazol-2-yl)-2,5-diphenyltetrazolium bromide (MTT) assay as previously described (Sueoka et al., 2000).

[6] = target: IGF-I (Homo sapiens, UniProt P05019); experiment: Western ligand blot of conditioned media; type: binding; conditions: conditioned media of Ad5CMV-BP3-infected H1299 cells, [125I]IGF-I probe
Protocol: Conditioned media were collected from H1299 cells after adenoviral infection. Western blot and Western ligand blot analyses were performed using 30 μg of whole cell lysate or 30 μl of conditioned media as previously described (Sueoka et al., 2000).

[7] = test system: chick embryo CAM; experiment: Chorioallantoic membrane angiogenesis induced by bFGF; type: in vivo; conditions: bFGF 50 ng alone, 72 h; positive eggs/total
Protocol: To assess whether IGFBP-3 is able to inhibit angiogenesis chick embryos were induced with IGFBP3 and dnIGFIR. On day 10, each CAM was exposed to bFGF (50 ng/disk) in the absence or presence of 10^4 particles of Ad5CMV alone, Ad5CMV-IGFBP3, or Ad5CMV-dnIGFIR. After 72 h of incubation, a fat emulsion was injected into the CAM to visualize the blood vessels. CAMs were examined with a microscope to count the positive responsive eggs which have spoke wheel-like vessels. Both IGFBP3 and dnIGFIR inhibited chorioallantoic membrane angiogenesis induced by bFGF FIG. 14. The results are expressed as the percentages of embryos showing activation (FIG. 14A). Positivity for angiogenesis in chick embryos subjected to various conditions was as follows: Collagen alone: 1/5; bFGF (50 ng): 5/5; EV(10^4)+bFGF: 7/8; IGFBP3(10^4)+bFGF: 4/9; dnAKT (10^4)+bFGF: 8/9; dnIGFR (10^4)+bFGF: 4/9; and KP372 (100 nM)+bFGF: 8/9.

Sequence of IGF-I (P05019 49-118 limits assumed, species assumed): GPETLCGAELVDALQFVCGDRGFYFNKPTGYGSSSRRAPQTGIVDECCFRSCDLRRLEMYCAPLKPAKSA
Sequence of IGF-I (P17936 28-291 partner, species assumed): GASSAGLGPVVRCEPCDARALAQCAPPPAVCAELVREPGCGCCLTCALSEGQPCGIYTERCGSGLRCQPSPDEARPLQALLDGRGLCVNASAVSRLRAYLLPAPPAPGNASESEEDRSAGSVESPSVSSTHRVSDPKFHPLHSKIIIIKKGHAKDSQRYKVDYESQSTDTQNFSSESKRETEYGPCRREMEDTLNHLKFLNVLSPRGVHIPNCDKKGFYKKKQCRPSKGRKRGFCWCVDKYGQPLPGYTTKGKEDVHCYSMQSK

For `CC1=C(/C=C/C(C)=C/C=C/C(C)=C/C(=O)Nc2ccc(O)cc2)C(C)(C)CCC1` [4-HPR, N-(4-hydroxyphenyl)retinamide, reference compound], the “levels of pAkt and pGSK-3β” value [1] was “did not alter levels of pAkt and pGSK-3β” and the “cell proliferation, control versus constitutively active Akt” value [2] was “no difference in cell proliferation”.
For `Nc1ncn([C@H]2C[C@H](O)[C@@H](CO)O2)c(=O)n1` [5-aza-dC], the “concentration reactivating IGFBP-3 expression” value [3] was “More than 1 μM”.
In the case of “IGF-I: insulin-like growth factor I, purchased from R&D Systems”, the “effect on serum depletion-induced apoptosis” value [4] is reported as “rescued H1299 cells from serum depletion-induced apoptosis” and the “concentration inducing growth of NSCLC cell lines” value [5] is reported as over 10 ng/mL.
In the case of “IGF-II: IGF-II purchased from R&D Systems”, the “mitogenic effect on NSCLC cell growth” value [5] is reported as “minimal mitogenic effect”.
For “IGFBP-3: insulin growth factor binding protein 3 secreted from Ad5CMV-BP3-infected H1299 cells”, the “binding of secreted IGFBP-3 to IGF-I” value [6] was “bound strongly”.
With “bFGF: angiogenesis inducer, 50 ng/disk, in the CAM assay” the “positivity for angiogenesis in chick embryos” value [7] was 5/5.
